Measured values reported in patent US10358463B2, “Immunomodulators” (BRISTOL-MYERS SQUIBB COMPANY, priority 2016, dated 2019).
Numbered stars: 1 amine (or outer) side, 2 acyl side, 3 side chain; on linkers, the order of the positions; unused ones are H or OH. Bridge positions count the residues as written; N and C are the ends. Square brackets hold non-standard residues; d marks the D form. Peptide text beside a SMILES is read from it. Trp(1-CH2CONHSO2Me) = CS(=O)(=O)NC(=O)Cn1cc(C[C@H](N)C(=O)O)c2ccccc21; Trp(4-aza,1-CH2COOH) = N[C@@H](Cc1cn(CC(=O)O)c2cccnc12)C(=O)O; X11 = O=C(O)Cc1nc(C[C@H](N[*:1])C(=O)[*:2])c2n1CCCC2; X5 = O=C(O)Cn1nc(C[C@H](N[*:1])C(=O)[*:2])c2ccccc21; X7 = O=C(O)Cc1nc(C[C@H](N[*:1])C(=O)[*:2])n2ccccc12; X9 = O=C(O)Cn1cc(CC(N[*:1])C(=O)[*:2])c2cnccc21; X6 = O=C([C@H](Cc1ccc2cnccc2c1)N[*:1])[*:2]; Phe(4-F) = N[C@@H](Cc1ccc(F)cc1)C(=O)O; Hyp = O=C(O)[C@@H]1C[C@@H](O)CN1; NMeNle = CCCC[C@H](NC)C(=O)O; Pen = CC(C)(S)[C@H](N)C(=O)O; Pip = O=C(O)[C@@H]1CCCCN1; NMeA = CN[C@@H](C)C(=O)O; Dab = NCC[C@H](N)C(=O)O; Dap = NC[C@H](N)C(=O)O

Biological target: T1, PD-1-Ig binding to PD-L1-TVMV-His (PD-L1-His) (Homo sapiens, UniProt Q9NZQ7)
T1 construct: hPDL1 (19-239)-TVMV-His; TVMV protease cleavage site (C); made in house; host or cells: HEK293T cells
T1 sequence (Q9NZQ7 with tags, fused parts or gaps): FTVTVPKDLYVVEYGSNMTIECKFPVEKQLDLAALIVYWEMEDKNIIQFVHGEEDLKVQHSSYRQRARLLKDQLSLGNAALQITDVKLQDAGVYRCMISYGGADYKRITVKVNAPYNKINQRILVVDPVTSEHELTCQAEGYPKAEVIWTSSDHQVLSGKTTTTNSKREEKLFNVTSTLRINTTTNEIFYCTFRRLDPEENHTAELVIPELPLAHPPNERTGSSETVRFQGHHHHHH
Test: PD-1/PD-L1 Homogenous Time-Resolved Fluorescence (HTRF) binding assay
Settings: PD-1-Ig (20 nM)/PD-L1-His (10 nM)
From the text: The ability of the macrocyclic peptides of the present disclosure to bind to PD-L1 was investigated using a PD-1/PD-L1 Homogenous Time-Resolved Fluorescence (HTRF) binding assay.
Homogenous Time-Resolved Fluorescence (HTRF) Assays of Binding of Soluble PD-1 to Soluble PD-L1. Soluble PD-1 and soluble PD-L1 refers to proteins with carboxyl-end truncations that remove the transmembrane-spanning regions and are fused to heterologous sequences, specifically the Fc portion of the human immunoglobuling G sequence (Ig) or the hexahistidine epitope tag (His). All binding studies were performed in an HTRF assay buffer consisting of dPBS supplemented with 0.1% (w/v) bovine serum albumin and 0.05% (v/v) Tween-20. For the PD-1-Ig/PD-L1-His binding assay, inhibitors were pre-incubated with PD-L1-His (10 nM final) for 15 m in 4 μl of assay buffer, followed by addition of PD-1-Ig (20 nM final) in 1 μl of assay buffer and further incubation for 15 m. PD-L1 fusion proteins from either human, cynomologous macaques, mouse, or other species were used. HTRF detection was achieved using europium crypate-labeled anti-Ig monoclonal antibody (1 nM final) and allophycocyanin (APC) labeled anti-His monoclonal antibody (20 nM final). Antibodies were diluted in HTRF detection buffer and 5 μl was dispensed on top of binding reaction. The reaction was allowed to equilibrate for 30 minutes and signal (665 nm/620 nm ratio) was obtained using an EnVision fluorometer. Additional binding assays were established between PD-1-Ig/PD-L2-His (20 and 5 nM, respectively), CD80-His/PD-L1-Ig (100 and 10 nM, respectively) and CD80-His/CTLA4-Ig (10 and 5 nM, respectively). Binding/competition studies between biotinylated Compound No. 71 and human PD-L1-His were performed as follows. Macrocyclic peptide inhibitors were pre-incubated with PD-L1-His (10 nM final) for 60 minutes in 4 μl of assay buffer followed by addition of biotinylated Compound No. 71 (0.5 nM final) in 1 μl of assay buffer. Binding was allowed to equilibrate for 30 minutes followed by addition of europium crylated labeled Streptavidin (2.5 pM final) and APC-labeled anti-His (20 nM final) in 5 μl of HTRF buffer. The reaction was allowed to equilibrate for 30 m and signal (665 nm/620 nm ratio) was obtained using an EnVision fluorometer.
Recombinant Proteins. Carboxyl-truncated human PD-1 (amino acids 25-167) with a C-terminal human Ig epitope tag [hPD-1 (25-167)-3S-IG] and human PD-L1 (amino acids 18-239) with a C-terminal His epitope tag [hPD-L1(19-239)-tobacco vein mottling virus protease cleavage site (TVMV)-His] were expressed in HEK293T cells and purified sequentially by recombinant Protein A affinity chromatography and size exclusion chromatography. Human PD-L2-His (Sino Biologicals), CD80-His (Sino Biologicals), CTLA4-Ig (RnD Systems) were all obtained through commercial sources.

CCCC[C@H]1C(=O)N(C)[C@@H](CCCC)C(=O)N[C@@H](CC(C)C)C(=O)N[C@H](C(N)=O)C(C)(C)SCC(=O)N[C@@H](Cc2ccc(O)cc2)C(=O)N2CCCC[C@H]2C(=O)N[C@@H](CC(=O)O)C(=O)N2CCC[C@H]2C(=O)N[C@@H](Cc2cnc[nH]2)C(=O)N[C@@H](CCC(=O)O)C(=O)N2C[C@H](O)C[C@H]2C(=O)N[C@@H](Cc2c[nH]c3ccccc23)C(=O)N[C@@H](CCN)C(=O)N[C@@H](Cc2cn(CC(=O)NS(C)(=O)=O)c3ccccc23)C(=O)N1C [Example 1010] ({CH2CO}-Y[Pip]DPHE[Hyp]W[Dab][Trp(1-CH2CONHSO2Me)][NMeNle][NMeNle]L[Pen]-NH2; thioether N-14)
IC50 (range class): 1 to 9.9 nM

CCCC[C@H]1C(=O)N(C)[C@@H](CCCC)C(=O)N[C@@H](CC(C)C)C(=O)N[C@H](C(=O)NCC(N)=O)CSCC(=O)N[C@@H](Cc2ccc(O)cc2)C(=O)N(C)[C@@H](C)C(=O)N[C@@H](CC(N)=O)C(=O)N2CCC[C@H]2C(=O)N[C@@H](CN)C(=O)N[C@@H](CC(C)C)C(=O)N2C[C@H](O)C[C@H]2C(=O)N[C@@H](Cc2c[nH]c3ccccc23)C(=O)N[C@@H](CCN)C(=O)N[C@@H](Cc2nn(CC(=O)O)c3ccccc23)C(=O)N1C [Example 10500] ({CH2CO}-Y[NMeA]NP[Dap]L[Hyp]W[Dab][X5][NMeNle][NMeNle]LCG-NH2; thioether N-14)
IC50 (range class): 1 to 9.9 nM

CCCC[C@H]1C(=O)N(C)[C@@H](CCCC)C(=O)N[C@@H](CC(C)C)C(=O)N[C@H](C(=O)NCC(N)=O)CSCC(=O)N[C@@H](Cc2ccc(O)cc2)C(=O)N(C)[C@@H](C)C(=O)N[C@@H](CC(N)=O)C(=O)N2CCC[C@H]2C(=O)N[C@@H](CN)C(=O)N[C@@H](CC(C)C)C(=O)N2C[C@H](O)C[C@H]2C(=O)N[C@@H](Cc2c[nH]c3ccccc23)C(=O)N[C@@H](CCN)C(=O)N[C@@H](Cc2cn(CC(=O)NS(C)(=O)=O)c3ccccc23)C(=O)N1C [Example 1001] ({CH2CO}-Y[NMeA]NP[Dap]L[Hyp]W[Dab][Trp(1-CH2CONHSO2Me)][NMeNle][NMeNle]LCG-NH2; thioether N-14)
IC50 (numeric value): 4 nM

CCCC[C@H]1C(=O)N(C)[C@@H](CCCC)C(=O)N[C@@H](CC(C)C)C(=O)N[C@H](C(=O)NCC(N)=O)CSCC(=O)N[C@@H](Cc2ccc(O)cc2)C(=O)N(C)[C@@H](C)C(=O)N[C@@H](CC(N)=O)C(=O)N2CCC[C@H]2C(=O)N[C@@H](CN)C(=O)N[C@@H](CC(C)C)C(=O)N2C[C@H](O)C[C@H]2C(=O)N[C@@H](Cc2c[nH]c3ccccc23)C(=O)N[C@@H](CCN)C(=O)N[C@@H](Cc2nc(CC(=O)O)c3ccccn23)C(=O)N1C [Example 1017] ({CH2CO}-Y[NMeA]NP[Dap]L[Hyp]W[Dab][X7][NMeNle][NMeNle]LCG-NH2; thioether N-14)
IC50 (range class): 1 to 9.9 nM

CCCC[C@H]1C(=O)N(C)[C@@H](CCCC)C(=O)N[C@@H](CC(C)C)C(=O)N[C@H](C(=O)NCC(N)=O)CSCC(=O)N[C@@H](Cc2ccc(O)cc2)C(=O)N(C)[C@@H](C)C(=O)N[C@@H](CC(=O)O)C(=O)N2CCC[C@H]2C(=O)N[C@@H](Cc2cnc[nH]2)C(=O)N[C@@H](CCCCN)C(=O)N2C[C@H](O)C[C@H]2C(=O)N[C@@H](Cc2c[nH]c3ccccc23)C(=O)N[C@@H](CCCCN)C(=O)N[C@@H](Cc2cn(Cc3nnn[nH]3)c3ccccc23)C(=O)N1C [Example 1002]
IC50 (range class): 1 to 9.9 nM

CCCC[C@H]1C(=O)N(C)[C@@H](CCCC)C(=O)N[C@@H](CC(C)C)C(=O)N[C@H](C(N)=O)C(C)(C)SCC(=O)N[C@@H](Cc2ccc(F)cc2)C(=O)N2CCCC[C@H]2C(=O)N[C@@H](CC(=O)O)C(=O)N2CCC[C@H]2C(=O)N[C@@H](Cc2cnc[nH]2)C(=O)N[C@@H](CCC(=O)O)C(=O)N2C[C@H](O)C[C@H]2C(=O)N[C@@H](Cc2c[nH]c3ccccc23)C(=O)N[C@@H](CCN)C(=O)N[C@@H](Cc2cn(CC(=O)NS(C)(=O)=O)c3ccccc23)C(=O)N1C [Example 1006] ({CH2CO}-[Phe(4-F)][Pip]DPHE[Hyp]W[Dab][Trp(1-CH2CONHSO2Me)][NMeNle][NMeNle]L[Pen]-NH2; thioether N-14)
IC50 (range class): 1 to 9.9 nM

CCCC[C@H]1C(=O)N(C)[C@@H](CCCC)C(=O)N[C@@H](CCCNC(=N)N)C(=O)N[C@H](C(=O)NCC(N)=O)CSCC(=O)N[C@@H](Cc2ccc(O)cc2)C(=O)N(C)[C@@H](C)C(=O)N[C@@H](CC(N)=O)C(=O)N2CCC[C@H]2C(=O)N[C@@H](Cc2cnc[nH]2)C(=O)N[C@@H](CC(C)C)C(=O)N2C[C@H](O)C[C@H]2C(=O)N[C@@H](Cc2c[nH]c3ccccc23)C(=O)N[C@@H](CO)C(=O)N[C@@H](Cc2ccc3cnccc3c2)C(=O)N1C [Example 0001] ({CH2CO}-Y[NMeA]NPHL[Hyp]WS[X6][NMeNle][NMeNle]RCG-NH2; thioether N-14)
IC50 (range class): 100 to 990 nM

CCCC[C@H]1C(=O)N(C)[C@@H](CCCC)C(=O)N[C@@H](CC(C)C)C(=O)N[C@H](C(N)=O)C(C)(C)SCC(=O)N[C@@H](Cc2ccc(OC)cc2)C(=O)N2CCCC[C@H]2C(=O)N[C@@H](CC(=O)O)C(=O)N2CCC[C@H]2C(=O)N[C@@H](Cc2cnc[nH]2)C(=O)N[C@@H](CCC(=O)O)C(=O)N2C[C@H](O)C[C@H]2C(=O)N[C@@H](Cc2c[nH]c3ccccc23)C(=O)N[C@@H](CCN)C(=O)N[C@@H](Cc2cn(CC(=O)NS(C)(=O)=O)c3ccccc23)C(=O)N1C [Example 1007] ({CH2CO}-Y(Me)[Pip]DPHE[Hyp]W[Dab][Trp(1-CH2CONHSO2Me)][NMeNle][NMeNle]L[Pen]-NH2; thioether N-14)
IC50 (range class): 1 to 9.9 nM

CCCC[C@H]1C(=O)N(C)[C@@H](CCCC)C(=O)N[C@@H](CC(C)C)C(=O)N[C@H](C(N)=O)C(C)(C)SCC(=O)N[C@@H](Cc2ccc(OC)cc2)C(=O)N2CCCC[C@H]2C(=O)N[C@@H](CC(=O)O)C(=O)N2CCC[C@H]2C(=O)N[C@@H](CN)C(=O)N[C@@H](CCC(=O)O)C(=O)N2C[C@H](O)C[C@H]2C(=O)N[C@@H](Cc2c[nH]c3ccccc23)C(=O)N[C@@H](CCN)C(=O)N[C@@H](Cc2cn(CC(=O)NS(C)(=O)=O)c3ccccc23)C(=O)N1C [Example 1004] ({CH2CO}-Y(Me)[Pip]DP[Dap]E[Hyp]W[Dab][Trp(1-CH2CONHSO2Me)][NMeNle][NMeNle]L[Pen]-NH2; thioether N-14)
IC50 (range class): 1 to 9.9 nM

CCCC[C@H]1C(=O)N(C)[C@@H](CCCC)C(=O)N[C@@H](CC(C)C)C(=O)N[C@H](C(=O)NCC(N)=O)CSCC(=O)N[C@@H](Cc2ccc(O)cc2)C(=O)N(C)[C@@H](C)C(=O)N[C@@H](CC(N)=O)C(=O)N2CCC[C@H]2C(=O)N[C@@H](CN)C(=O)N[C@@H](CC(C)C)C(=O)N2C[C@H](O)C[C@H]2C(=O)N[C@@H](Cc2c[nH]c3ccccc23)C(=O)N[C@@H](CCN)C(=O)NC(Cc2cn(CC(=O)O)c3ccncc23)C(=O)N1C (stereo partly drawn) [Example 10001] ({CH2CO}-Y[NMeA]NP[Dap]L[Hyp]W[Dab][X9][NMeNle][NMeNle]LCG-NH2; thioether N-14)
IC50 (range class): 10 to 99 nM

CCCC[C@H]1C(=O)N(C)[C@@H](CCCC)C(=O)N[C@@H](CC(C)C)C(=O)N[C@H](C(N)=O)CSCC(=O)N[C@@H](Cc2ccc(O)cc2)C(=O)N(C)[C@@H](C)C(=O)N[C@@H](CC(N)=O)C(=O)N2CCC[C@H]2C(=O)N[C@@H](CN)C(=O)N[C@@H](CC(C)C)C(=O)N2C[C@H](O)C[C@H]2C(=O)N[C@@H](Cc2c[nH]c3ccccc23)C(=O)N[C@@H](CCN)C(=O)N[C@@H](Cc2cn(CC(=O)O)c3cccnc23)C(=O)N1C [Example 10502] ({CH2CO}-Y[NMeA]NP[Dap]L[Hyp]W[Dab][Trp(4-aza,1-CH2COOH)][NMeNle][NMeNle]LC-NH2; thioether N-14)
IC50 (numeric value): 13 nM

CCCC[C@H]1C(=O)N(C)[C@@H](CCCC)C(=O)N[C@@H](CC(C)C)C(=O)N[C@H](C(=O)NCC(N)=O)CSCC(=O)N[C@@H](Cc2ccc(O)cc2)C(=O)N(C)[C@@H](C)C(=O)N[C@@H](CC(N)=O)C(=O)N2CCC[C@H]2C(=O)N[C@@H](CN)C(=O)N[C@@H](CC(C)C)C(=O)N2C[C@H](O)C[C@H]2C(=O)N[C@@H](Cc2c[nH]c3ccccc23)C(=O)N[C@@H](CCN)C(=O)N[C@@H](Cc2nc(CC(=O)O)n3c2CCCC3)C(=O)N1C [Example 1009] ({CH2CO}-Y[NMeA]NP[Dap]L[Hyp]W[Dab][X11][NMeNle][NMeNle]LCG-NH2; thioether N-14)
IC50 (range class): 10 to 99 nM
